Test results from publication PMC5218480 (PLoS ONE, 2017).

Test system: MV-4-11 cells
Experiment: Gene expression microarray analysis (Affymetrix PrimeView) and GSEA
Type: cell-based, human
Design: RFU PODN (11730768_x_at) / Fold change /veh PODN (11730768_x_at) / RFU LINC00158 (11744669_a_at) / Fold change /veh LINC00158 (11744669_a_at) / RFU DUSP10 (11751237_a_at) / Fold change /veh DUSP10 (11751237_a_at) / RFU ID3 (11757404_x_at) / Fold change /veh ID3 (11757404_x_at) / RFU PLEKHG5 (11737974_s_at) / Fold change /veh PLEKHG5 (11737974_s_at) / RFU LRRC4B (11730491_at) / Fold change /veh LRRC4B (11730491_at) / RFU GIMAP4 (11747438_a_at) / Fold change /veh GIMAP4 (11747438_a_at) / RFU KRT8 (11758183_x_at) / Fold change /veh KRT8 (11758183_x_at) / RFU CNN1 (11734310_a_at) / Fold change /veh CNN1 (11734310_a_at) / RFU VPS37D (11726825_at) / Fold change /veh VPS37D (11726825_at) / RFU C10orf10 (11716522_x_at) / Fold change /veh C10orf10 (11716522_x_at) / RFU KIR2DL2 /// KIR2DL4 /// KIR2DL5A /// KIR2DL5B /// KIR2DS1 /// KIR2DS2 /// KIR2DS3 /// KIR2DS4 /// KIR3DL3 /// KIR3DL3 /// KIR3DS1 (11738374_at) / Fold change /veh KIR2DL2 /// KIR2DL4 /// KIR2DL5A /// KIR2DL5B /// KIR2DS1 /// KIR2DS2 /// KIR2DS3 /// KIR2DS4 /// KIR3DL3 /// KIR3DL3 /// KIR3DS1 (11738374_at) / RFU C1QL1 (11718748_at) / Fold change /veh C1QL1 (11718748_at) / RFU TMPRSS4 (11747572_a_at) / Fold change /veh TMPRSS4 (11747572_a_at) / RFU HAMP (11756126_x_at) / Fold change /veh HAMP (11756126_x_at) / RFU RNFT2 (11725882_a_at) / Fold change /veh RNFT2 (11725882_a_at) / RFU NR4A2 (11747474_a_at) / Fold change /veh NR4A2 (11747474_a_at) / RFU ABCC12 (11746883_a_at) / Fold change /veh ABCC12 (11746883_a_at) / RFU TMEM136 (11760407_x_at) / Fold change /veh TMEM136 (11760407_x_at) / RFU CLDN22 /// WWC2 (11732394_at) / Fold change /veh CLDN22 /// WWC2 (11732394_at) / RFU HLA-DPB1 (11760878_x_at) / Fold change /veh HLA-DPB1 (11760878_x_at) / RFU SPINT1 (11716480_a_at) / Fold change /veh SPINT1 (11716480_a_at) / RFU GAP43 (11754022_s_at) / Fold change /veh GAP43 (11754022_s_at) / RFU A4GNT (11735810_at) / Fold change /veh A4GNT (11735810_at) / RFU PRB3 (11715151_x_at) / Fold change /veh PRB3 (11715151_x_at) / RFU TUBB4B (11761932_at) / Fold change /veh TUBB4B (11761932_at) / RFU CAPN14 (11732068_a_at) / Fold change /veh CAPN14 (11732068_a_at) / RFU TMCC2 (11721928_a_at) / Fold change /veh TMCC2 (11721928_a_at) / RFU IRGQ (11745062_a_at) / Fold change /veh IRGQ (11745062_a_at) / RFU FAM174B (11720279_a_at) / Fold change /veh FAM174B (11720279_a_at) / RFU TMPRSS4 (11748680_a_at) / Fold change /veh TMPRSS4 (11748680_a_at) / RFU FAM212B (11763350_a_at) / Fold change /veh FAM212B (11763350_a_at) / RFU PLEKHG5 (11743358_a_at) / Fold change /veh PLEKHG5 (11743358_a_at) / RFU ZSCAN30 (11745921_a_at) / Fold change /veh ZSCAN30 (11745921_a_at) / RFU CMKLR1 (11741424_a_at) / Fold change /veh CMKLR1 (11741424_a_at) / RFU LOC101060620 /// MAPK8IP1 (11723275_at) / Fold change /veh LOC101060620 /// MAPK8IP1 (11723275_at) / RFU SPTSSB (11747773_x_at) / Fold change /veh SPTSSB (11747773_x_at) / RFU PRSS12 (11739890_at) / Fold change /veh PRSS12 (11739890_at) / RFU BIN1 (11741810_x_at) / Fold change /veh BIN1 (11741810_x_at) / RFU WNT11 (11732464_a_at) / Fold change /veh WNT11 (11732464_a_at) / RFU C10orf10 (11716521_a_at) / Fold change /veh C10orf10 (11716521_a_at) / RFU C5orf56 (11738089_at) / Fold change /veh C5orf56 (11738089_at) / RFU CYB561 (11721691_x_at) / Fold change /veh CYB561 (11721691_x_at) / RFU ANKRD19P (11752326_a_at) / Fold change /veh ANKRD19P (11752326_a_at) / RFU OR2T12 /// OR2T33 /// OR2T8 (11738714_s_at) / Fold change /veh OR2T12 /// OR2T33 /// OR2T8 (11738714_s_at) / RFU VCAN (11748164_a_at) / Fold change /veh VCAN (11748164_a_at) / RFU JSRP1 (11732532_at) / Fold change /veh JSRP1 (11732532_at) / RFU KRTAP10-11 (11738290_x_at) / Fold change /veh KRTAP10-11 (11738290_x_at) / RFU MYO3A (11730013_a_at) / Fold change /veh MYO3A (11730013_a_at) / RFU EBF3 (11725865_a_at) / Fold change /veh EBF3 (11725865_a_at) / RFU CAMK2N1 (11719241_x_at) / Fold change /veh CAMK2N1 (11719241_x_at) / RFU C5orf56 (11738088_a_at) / Fold change /veh C5orf56 (11738088_a_at) / RFU OLFML3 (11715873_a_at) / Fold change /veh OLFML3 (11715873_a_at) / RFU LOC100653217 /// NTM (11731650_a_at) / Fold change /veh LOC100653217 /// NTM (11731650_a_at) / RFU MAPK11 (11762145_a_at) / Fold change /veh MAPK11 (11762145_a_at) / RFU FIZ1 (11724087_x_at) / Fold change /veh FIZ1 (11724087_x_at) / RFU OASL (11726364_x_at) / Fold change /veh OASL (11726364_x_at) / RFU SOX15 (11748057_x_at) / Fold change /veh SOX15 (11748057_x_at) / RFU CD79A (11719716_a_at) / Fold change /veh CD79A (11719716_a_at) / RFU HIST1H1D (11736915_at) / Fold change /veh HIST1H1D (11736915_at) / RFU CASKIN2 (11723855_a_at) / Fold change /veh CASKIN2 (11723855_a_at) / RFU LOC730098 (11760151_x_at) / Fold change /veh LOC730098 (11760151_x_at) / RFU OR4N2 (11742367_at) / Fold change /veh OR4N2 (11742367_at) / RFU PRRT2 (11749266_a_at) / Fold change /veh PRRT2 (11749266_a_at) / RFU SNX32 (11753110_a_at) / Fold change /veh SNX32 (11753110_a_at) / RFU CDHR5 (11726645_a_at) / Fold change /veh CDHR5 (11726645_a_at) / RFU RCAN1 (11760418_a_at) / Fold change /veh RCAN1 (11760418_a_at) / RFU FAM167A (11723789_a_at) / Fold change /veh FAM167A (11723789_a_at) / RFU FAM26E (11764081_at) / Fold change /veh FAM26E (11764081_at) / RFU ISYNA1 (11749810_s_at) / Fold change /veh ISYNA1 (11749810_s_at) / RFU ACY1 (11761880_at) / Fold change /veh ACY1 (11761880_at) / RFU 11764098_at / Fold change /veh 11764098_at / RFU SAMD14 (11745864_x_at) / Fold change /veh SAMD14 (11745864_x_at) / RFU NPB (11741838_a_at) / Fold change /veh NPB (11741838_a_at) / RFU TMPRSS6 (11731388_a_at) / Fold change /veh TMPRSS6 (11731388_a_at) / RFU KRTAP10-2 (11738614_at) / Fold change /veh KRTAP10-2 (11738614_at) / RFU ARHGAP8 /// PRR5-ARHGAP8 (11727945_x_at) / Fold change /veh ARHGAP8 /// PRR5-ARHGAP8 (11727945_x_at) / RFU KRTAP5-7 /// NADSYN1 (11734609_at) / Fold change /veh KRTAP5-7 /// NADSYN1 (11734609_at) / RFU RASL12 (11751679_a_at) / Fold change /veh RASL12 (11751679_a_at) / RFU CDKN2B (11736163_a_at) / Fold change /veh CDKN2B (11736163_a_at) / RFU PRF1 (11729649_at) / Fold change /veh PRF1 (11729649_at) / RFU, ZNF638 /// ZNF638-IT1 / Fold change vs veh, ZNF638 /// ZNF638-IT1 / RFU, PANK3 / Fold change vs veh, PANK3 / RFU, SH3YL1 / Fold change vs veh, SH3YL1 / RFU, ZEB2 / Fold change vs veh, ZEB2 / RFU, NRIP1 / Fold change vs veh, NRIP1 / RFU, PTTG1IP / Fold change vs veh, PTTG1IP / RFU, CAPN2 / Fold change vs veh, CAPN2 / RFU, MED14 / Fold change vs veh, MED14 / RFU, SNORA58 / Fold change vs veh, SNORA58 / RFU, C1orf63 / Fold change vs veh, C1orf63 / RFU, LRRFIP1 / Fold change vs veh, LRRFIP1 / RFU, NDUFAF7 / Fold change vs veh, NDUFAF7 / RFU, SLC12A2 / Fold change vs veh, SLC12A2 / RFU, IBTK / Fold change vs veh, IBTK / RFU, ESF1 / Fold change vs veh, ESF1 / Fold change vs veh, TMEM50B / RFU, TAOK1 / Fold change vs veh, TAOK1 / RFU, ACBD3 / Fold change vs veh, ACBD3 / RFU, TMA16 / Fold change vs veh, TMA16 / RFU, RWDD3 / Fold change vs veh, RWDD3 / RFU, BCAT1 / Fold change vs veh, BCAT1 / RFU, EDEM3 / Fold change vs veh, EDEM3 / RFU, TMEM33 / Fold change vs veh, TMEM33 / RFU, WDR75 / Fold change vs veh, WDR75 / RFU, AHCTF1 / Fold change vs veh, AHCTF1 / RFU, TFRC / Fold change vs veh, TFRC / RFU, ZDHHC17 / Fold change vs veh, ZDHHC17 / RFU, NOM1 / Fold change vs veh, NOM1 / RFU, ARL8B / Fold change vs veh, ARL8B / RFU, ZBTB11 / Fold change vs veh, ZBTB11 / RFU, TAMM41 / Fold change vs veh, TAMM41 / RFU, KIAA1704 /// LOC100996395 / Fold change vs veh, KIAA1704 /// LOC100996395 / RFU, ING1 / Fold change vs veh, ING1 / RFU, TRMT61B / Fold change vs veh, TRMT61B / RFU, FUBP3 / Fold change vs veh, FUBP3 / RFU, TP53 / Fold change vs veh, TP53 / RFU, TNKS2 / Fold change vs veh, TNKS2 / RFU, ZFP14 / Fold change vs veh, ZFP14 / RFU, ACTR2 / Fold change vs veh, ACTR2 / RFU, PPP3R1 / Fold change vs veh, PPP3R1 / RFU, PIK3R1 / Fold change vs veh, PIK3R1 / RFU, HNRNPA1 / Fold change vs veh, HNRNPA1 / RFU, RNF170 / Fold change vs veh, RNF170 / RFU, ZNF28 / Fold change vs veh, ZNF28 / RFU, RNGTT / Fold change vs veh, RNGTT / RFU, OGT / Fold change vs veh, OGT / RFU, BRD1 / Fold change vs veh, BRD1 / RFU, MARS / Fold change vs veh, MARS / RFU, ZNF655 / Fold change vs veh, ZNF655 / RFU, FAHD1 / Fold change vs veh, FAHD1 / RFU, BDP1 / Fold change vs veh, BDP1 / RFU, LRRCC1 / Fold change vs veh, LRRCC1 / RFU, ARID1A / Fold change vs veh, ARID1A / RFU, ZNF146 / Fold change vs veh, ZNF146 / RFU, ZNF330 / Fold change vs veh, ZNF330 / RFU, GPN3 / Fold change vs veh, GPN3 / RFU, C9orf123 / Fold change vs veh, C9orf123 / RFU, N4BP2L2 / Fold change vs veh, N4BP2L2 / RFU, ARFIP1 / Fold change vs veh, ARFIP1 / RFU, FAM179B / Fold change vs veh, FAM179B / RFU, BCL10 / Fold change vs veh, BCL10 / RFU, UHRF1BP1L / Fold change vs veh, UHRF1BP1L / RFU, BET1 / Fold change vs veh, BET1 / RFU, CNOT2 / Fold change vs veh, CNOT2 / RFU, ZNF268 / Fold change vs veh, ZNF268 / Fold change vs veh, ZNF507 / RFU, DGCR2 / Fold change vs veh, DGCR2 / RFU, WDSUB1 / Fold change vs veh, WDSUB1 / Fold change vs veh, HSP90B1 /// MIR3652 / RFU, ADSS / Fold change vs veh, ADSS / RFU, GK / Fold change vs veh, GK / RFU, ZNF148 / Fold change vs veh, ZNF148 / RFU, TAF9 / Fold change vs veh, TAF9 / RFU, SLC1A5 / Fold change vs veh, SLC1A5 / RFU, SLMO2 / Fold change vs veh, SLMO2 / RFU, ABCC4 / Fold change vs veh, ABCC4 / RFU, LOC101060439 /// RAP1B / Fold change vs veh, LOC101060439 /// RAP1B / RFU, RFX7 / Fold change vs veh, RFX7 / RFU, GTPBP10 / Fold change vs veh, GTPBP10 / RFU, CNEP1R1 / Fold change vs veh, CNEP1R1 / RFU, BIVM-ERCC5 /// ERCC5 / Fold change vs veh, BIVM-ERCC5 /// ERCC5 / RFU, ILF3 / Fold change vs veh, ILF3 / RFU 11762660_at / Fold change /veh 11762660_at / RFU VCAN (11757783_s_at) / Fold change /veh VCAN (11757783_s_at) / RFU DDX43 (11728927_at) / Fold change /veh DDX43 (11728927_at) / RFU KRT8 (11758188_x_at) / Fold change /veh KRT8 (11758188_x_at) / RFU NKD1 (11759106_at) / Fold change /veh NKD1 (11759106_at) / RFU SRD5A1 (11742802_a_at) / Fold change /veh SRD5A1 (11742802_a_at) / RFU TPSAB1 /// TPSB2 (11721975_s_at) / Fold change /veh TPSAB1 /// TPSB2 (11721975_s_at) / RFU GSTM3 (11746129_a_at) / Fold change /veh GSTM3 (11746129_a_at) / RFU IL23R (11737362_x_at) / Fold change /veh IL23R (11737362_x_at) / RFU TMEM51 (11727254_a_at) / Fold change /veh TMEM51 (11727254_a_at) / RFU PIWIL2 (11732686_x_at) / Fold change /veh PIWIL2 (11732686_x_at) / RFU ORM1 (11744905_x_at) / Fold change /veh ORM1 (11744905_x_at) / RFU CCDC152 (11743942_at) / Fold change /veh CCDC152 (11743942_at) / RFU ECM1 (11717891_a_at) / Fold change /veh ECM1 (11717891_a_at) / RFU IL23R (11748794_a_at) / Fold change /veh IL23R (11748794_a_at) / RFU TNFAIP8L3 (11732012_x_at) / Fold change /veh TNFAIP8L3 (11732012_x_at) / RFU MBOAT4 (11741988_at) / Fold change /veh MBOAT4 (11741988_at) / RFU 11764193_at / Fold change /veh 11764193_at / RFU TMEM53 (11763286_at) / Fold change /veh TMEM53 (11763286_at) / RFU MAGEB2 (11727129_at) / Fold change /veh MAGEB2 (11727129_at) / RFU TMEM200A (11744735_a_at) / Fold change /veh TMEM200A (11744735_a_at) / RFU CCDC152 (11751479_a_at) / Fold change /veh CCDC152 (11751479_a_at) / RFU FAM211A (11726209_a_at) / Fold change /veh FAM211A (11726209_a_at) / RFU RGS16 (11746705_a_at) / Fold change /veh RGS16 (11746705_a_at) / RFU VCAN (11755009_s_at) / Fold change /veh VCAN (11755009_s_at) / RFU RHOB (11743442_s_at) / Fold change /veh RHOB (11743442_s_at) / RFU RGS16 (11720943_a_at) / Fold change /veh RGS16 (11720943_a_at) / RFU RGS16 (11720944_at) / Fold change /veh RGS16 (11720944_at) / RFU, VPS4B / Fold change vs veh, VPS4B / RFU, CREB1 / Fold change vs veh, CREB1 / RFU, DNAJC13 / Fold change vs veh, DNAJC13 / RFU, GNAQ / Fold change vs veh, GNAQ / RFU, CDK5R1 / Fold change vs veh, CDK5R1 / RFU, ZRANB3 / Fold change vs veh, ZRANB3 / RFU, CUL4A / Fold change vs veh, CUL4A / RFU, CCNY / Fold change vs veh, CCNY / RFU, UFL1 / Fold change vs veh, UFL1 / RFU, COG3 / Fold change vs veh, COG3 / RFU, DIAPH2 / Fold change vs veh, DIAPH2 / RFU, SKA2 / Fold change vs veh, SKA2 / RFU, AFF3 / Fold change vs veh, AFF3 / RFU, LMF1 / Fold change vs veh, LMF1 / RFU, IPO11 / Fold change vs veh, IPO11 / RFU, DFFB / Fold change vs veh, DFFB / RFU, FOXP1 / Fold change vs veh, FOXP1 / RFU, CARD8 / Fold change vs veh, CARD8 / RFU, STRN3 / Fold change vs veh, STRN3 / RFU, ADK / Fold change vs veh, ADK / RFU, RASSF2 / Fold change vs veh, RASSF2 / RFU, WIPF1 / Fold change vs veh, WIPF1 / RFU, LARP1B / Fold change vs veh, LARP1B / RFU, RASA1 / Fold change vs veh, RASA1 / RFU, RB1 / Fold change vs veh, RB1 / RFU, PPFIA1 / Fold change vs veh, PPFIA1 / RFU, MAT2A / Fold change vs veh, MAT2A / RFU, CCT5 / Fold change vs veh, CCT5 / RFU, WDR92 / Fold change vs veh, WDR92 / RFU, CUX1 / Fold change vs veh, CUX1 / RFU, TTC7A / Fold change vs veh, TTC7A / RFU, TMEM135 / Fold change vs veh, TMEM135 / RFU, DEPTOR / Fold change vs veh, DEPTOR / RFU, CPM / Fold change vs veh, CPM / RFU, DNAJB6 / Fold change vs veh, DNAJB6 / RFU, CACNA2D3 / Fold change vs veh, CACNA2D3 / RFU, DTX4 / Fold change vs veh, DTX4 / RFU, TFCP2 / Fold change vs veh, TFCP2 / RFU, GMCL1 /// GMCL1P1 / Fold change vs veh, GMCL1 /// GMCL1P1 / RFU, AEBP2 / Fold change vs veh, AEBP2 / RFU, SNHG1 /// SNORD22 /// SNORD25 /// SNORD26 /// SNORD27 /// SNORD28 /// SNORD29 /// SNORD31 / Fold change vs veh, SNHG1 /// SNORD22 /// SNORD25 /// SNORD26 /// SNORD27 /// SNORD28 /// SNORD29 /// SNORD31 / Fold change (Aza/veh), C12orf56 (ProbeSet 11735607_a_at) / Fold change (ACY-1035/veh), C12orf56 (ProbeSet 11735607_a_at) / Fold change (Aza/veh), FGFR1OP (ProbeSet 11751329_s_at) / Fold change (ACY-1035/veh), FGFR1OP (ProbeSet 11751329_s_at) / Fold change (Aza/veh), VPS36 (ProbeSet 11739960_a_at) / Fold change (ACY-1035/veh), VPS36 (ProbeSet 11739960_a_at) / RFU SYPL1 (11715823_x_at) / Fold change /veh SYPL1 (11715823_x_at) / RFU IGFBP7 (11715501_s_at) / Fold change /veh IGFBP7 (11715501_s_at) / RFU REEP3 (11722064_at) / Fold change /veh REEP3 (11722064_at) / RFU IGLL1 (11728026_x_at) / Fold change /veh IGLL1 (11728026_x_at): dose or concentration left out as unconfirmed
Conditions: ProbeSet 11723930_at; LIST D

SMILES: Nc1ccc(-c2cccs2)cc1NC(=O)c1ccc2c(c1)cc(C1CC1)n2CCN1CCOCC1 [ACY-1035]
- RFU, CCT5: 132.28 RFU
